Source: patent publication US20260207670A1, “STABILIZED BLOOD DERIVED COMPOSITION USING ANTIFIBRINOLYTIC AGENTS” (priority 2022, published 2026)

Columns and labels:
PRP fibrin clot = assay: Speed of PRP fibrin clot disintegration (PRP gel disc diameter)
[1] = system: rabbit model of osteoarthritis; assay: Arthrosis rabbit model: radiological, macroscopic and histological scores; type: in vivo
Method: Rabbits showing characteristic signs of osteoarthritis (as described in Guingamp et al., 1997; confirmed with the sacrifice of two rabbits on day 15 after induction of osteoarthritis and histology), were injected with a treatment solution as described below. The rabbits were sacrificed after 75 days and radiological observation, macroscopic observation, histological observation of the cartilage, histological observation of the synovium, histological observation of the menisci were carried out.
The rabbits were treated with either: • 1. PRP alone; or • 2. […] Physiological serum (saline solution, a placebo)
The limbs were examined radiologically by two orthogonal views (anteroposterior and medio-lateral) performed using a SAMSUNG XGO® model GU60 digital radiography system (Samsung® Electronics Co, Ltd; Korè) according to radiological constants following: Voltage: 52 kV; Intensity: 100 mA; and Load: 5 mAs. The radiographs were examined blindly by two observers. The degenerative changes are similar between the two subgroups of group control (physiological serum and TXA alone). […] This is explained by the fact that tranexamic acid prevents the destruction of the fibrin network within the joint space and allows a prolonged biological action.

COL II gene = assay: RT-PCR of COL II gene expression in the rabbit osteoarthritis model; type: in vivo; details: p=0.12 (TXA), p=3.9*10-8 (PRP alone), p=2.1*10-6 (PRP+TXA)
Description: (§1) The measurement of the expression of the genes responsible for the cell differentiation is found to be important in assessing the potential regenerative of the therapy tested. The process of tissue repair involves the overexpression of the genes that are involved in the form of messenger RNA (mRNA) which will be essential for synthesis of proteins necessary for wound healing and differentiation. Therefore, quantification of the mRNA of such a gene will reflect the efficiency and the intensity of tissue repair. Based on this principle, in the rabbit osteoarthritis model of Example 3, RT-PCR was carried out in order to quantify two genes that are correlated to repair and differentiation hyaline cartilage: the COL II gene coding for the synthesis of collagen II; and the SOX9 gene coding for the differentiation mechanisms chondrocyte.

SOX9 gene = assay: RT-PCR of SOX9 gene expression in the rabbit osteoarthritis model; type: in vivo; details: p=0.36 (TXA)
Description: as §1

SMILES: NC[C@H]1CC[C@H](C(=O)O)CC1 [TXA, tranexamic acid]
- effect on PRP gel disc breakdown, 20 mg/mL compared with 10 mg/mL (PRP fibrin clot; 20 mg/mL tranexamic acid vs 10 mg/mL (Example 1)): even more beneficial effect
- rate of PRP gel disc breakdown (PRP fibrin clot; PRP gel discs with TXA 10 or 20 mg/ml vs pure PRP gel, diameter measured weekly over 21 days, physiological conditions): significantly reduced
- synovial score (osteoarthritic synoviopathy) compared to placebo ([1]; after 75 days, p=0.58 (TXA)): no statistically significant differences
- meniscal histological score compared to placebo ([1]; after 75 days, p=0.6 (TXA), p=0.07 (PRP alone), p=2.2*10-6 (PRP+TXA)): no statistically significant differences
- radiological score compared with physiological serum ([1]; rabbits sacrificed after 75 days, p=0.092 (PRP alone)): similar
- expression of COLII (RQ) compared to placebo (COL II gene): No significant difference
- expression of SOX9 gene (RQ) compared to placebo (SOX9 gene): No significant difference
